Measured values published in patent US6765014B1, “1-Acyl-7-nitroindoline derivatives, their preparation and their use as photocleavable precursors” (Medical Research Council, priority 1999, dated 2004).
Values belong to the compound of their own block, whether it stands above or below them.

Columns and labels:
[1] = literature value (16); cited from earlier work
[2] = Quantum yield estimation by laser flash irradiation (347 nm); assay type: physicochemical
Method: Quantum yield estimation for 10. A solution of 1-(2-nitrophenylethyl) phosphate and 10 (each 0.50 mM) together with dithiothreitol (5 mM) was prepared in 25 mM ammonium phosphate, pH 7.0. Aliquots of the solution ([…]) in a 1-mm path length cell were each subjected to one 50-ns flash from a frequency-doubled ruby laser, that delivered 347 nm light with an average energy of 90 mJ (range 83-104 mJ). The combined irradiated solutions were analyzed by reverse-phase HPLC (mobile phase 25 mM Na phosphate, pH 6.0+40% MeOH, 1.5 ml/min). Retention times were 4.2 and 7.2 min for 10 and 1-(2-nitrophenylethyl) phosphate respectively. Quantification was based on peak heights compared to those of the unphotolyzed control. Extinction coefficients at 347 nm used to calculate the relative quantum yields were 2720 and 510 M^−1cm^−1 for 10 and 1-(2-nitrophenylethyl) phosphate respectively. Photolysis and product analysis for compounds 10 and 18.
The product quantum yield (Qp) for photolysis of the glutamate derivative 10 was determined by laser flash irradiation (347 nm) of a solution containing 10 and 1-(2-nitrophenyl)ethyl phosphate (16) (both 0.5 mM in pH 7 phosphate buffer). Conversions by a single flash (˜90 mJ) were 9.7 and 23% respectively (reverse-phase HPLC), leading to Qp=0.043 by comparison with the known value (16) (0.54) for the caged phosphate and after correction for the different extinction coefficients at the irradiation wavelength. Although the value of Qp is low, the relatively high extinction coefficient at ˜350 nm (˜2700 M^−1cm^−1) compared to that of “classical” 2-nitrobenzyl-type caged compounds (˜600 M^−1cm^−1) enables similar photolytic efficiency to be achieved.

[3] = pH 7,21° C.; cited from earlier work
[4] = Hydrolytic stability of 1-acyl-7-nitroindolines (reverse-phase HPLC); assay type: physicochemical; settings: 62.5 mM Na phosphate, pH 12.01, 30° C.
Method: The extent of hydrolysis was determined by reverse-phase HPLC analysis (mobile phase 25 mM Na phosphate, pH 6.0+10% MeOH, 1.5 ml/min). […] Quantification was based on peak heights compared to those of unhydrolysed controls (to). First-order rate constants for hydrolysis were obtained from single exponential fits to the data.
In addition to the release rate of the bioeffector species following flash irradiation, important properties of any caged compound include stability in aqueous solution and its extent of photolysis upon a single flash irradiation.
In this context, hydrolytic stability refers to the amide bond. […] The use of the free acids avoided analytical complications from the much faster cleavage of the ester group.

[5] = Water solubility (stated in words); assay type: physicochemical
glutamate ion channels = assay: Whole-cell patch clamp of cultured rat cerebellar granule neurones, with and without flash photolysis; assay type: cell-based; settings: with and without iontophoretic application of L-glutamate
Method: The caged L-glutamate reagent 10 was tested in primary cultures of rat cerebellar granule neurones for its pharmacological actions and ability to effect photolytic activation of glutamate ion channels. All electrophysiological experiments were performed in Mg^2+-free mammalian Ringer's solution containing 100 μM glycine. Cells were voltage clamped at −65 mV with whole-cell patch clamp (17) and the glutamate sensitivity was established by responses to 20 ms pulses of L-glutamate, applied at a frequency of 0.25 Hz by iontophoresis from a 1-μm tipped glass pipette. […] The latter most likely arises from glutamate diffusion away from the photolyzed region. The time course of the initial decline may represent desensitization of non-NMDA glutamate channels.
During the slow decline there was a clear increase in the low frequency noise of the glutamate-activated current compared to baseline, consistent with gating of glutamate-activated ion channels.

[6] = Flash photolysis with time-resolved IR measurements, carboxylate formation; assay type: physicochemical; settings: 1557 cm^−1, 351 nm laser, 9 ns pulse, 25° C., pH 7
Text: (§1) Formation of different products in different solvents requires a change of mechanism and there is some precedent for photoreactivity of nitroaryl compounds in aqueous solution that was not observed in organic solvents. […] Second, we have investigated the kinetics of product formation, specifically of the released proton and carboxylate. […] The latter process may correspond with the slow phase of proton release described above. An overlapping band on the high-frequency side of the main 1553 cm^−1 band makes definitive interpretation of the signals uncertain.

[7] = Relative photolysis efficiencies of 8 and 11 (xenon arc lamp, HPLC); assay type: physicochemical; settings: after 2 min irradiation, 0.5 mM each, 25 mM Na phosphate pH 7.0, 100 W xenon arc lamp
Method: Relative photolysis efficiencies of 8 and 11. A solution containing both 8 and 11 (each 0.5 mM) in 25 mM Na phosphate, pH 7.0 was irradiated in a 1-mm path length cell using light from a 100 W xenon arc lamp which passed through Hoya 340 and Schott WG 305 filters before. illuminating the cell. The extent of photolysis of each compound was determined by reverse-phase HPLC analysis (mobile phase 10 mM Na phosphate, pH 6.0+50% MeOH, 1.5 mL/min). Retention times for 8 and 11 were 3.8 and 7.8 min respectively. After 2 min irradiation, the extents of conversion for compounds 8 and 11 were 40 and 16% respectively.
(§2) Upon comparative photolysis of the 1-glutaryl derivatives 8 and 11 in aqueous solutions at pH 7 and without excluding atmospheric oxygen, the bromo compound 11 was indeed converted ˜2.5-fold less efficiently than 8. Photolysis of 8 proceeded cleanly, as shown by an isosbestic point at 365 nm in spectra of a solution photolyzed for increasing times to at least 65% conversion, but the photoproduct of the protecting group was not the 7-nitroindoline 12 (λmax 450 nm) expected from the previous report (6a). […] Further confirmation of the presence of a nitroso group was that treatment of 13, R=CH2CO2Me) with a thiol readily abolished the 412 nm chromophore, presumably by conversion to the corresponding hydroxylamine (11, 12). […] In control experiments, photolysis of the glutaryl compound 8 in CH2Cl2-dioxane-H2O (2:3:0.05) cleanly gave the expected (6a) nitroindoline 12.

[8] = Flash photolysis with time-resolved UV-VIS absorption spectroscopy, proton release (pH indicator); assay type: physicochemical; settings: 320 nm laser, 1 ms pulse, 20° C.
Text: as §1

[9] = Analytical photolysis of 8 in organic and aqueous solvents; assay type: physicochemical; settings: CH2Cl2-dioxane-H2O mixture vs aqueous solution, equimolar solutions
Method: Analytical photolysis of 8 in organic and aqueous solvents. Solutions (˜[…]) of 8 in either CH2Cl2-dioxane-H2O (2:3:0.05) or 25 mM Na phosphate, pH 7.0 were irradiated in air for times between 0 and 16 min in a 1-cm path length cell with light from a 100 W xenon arc lamp, filtered through a Hoya 340 filter.
as §2

- Conversion by a single flash ([2]; 347 nm laser flash, ~90 mJ, 0.5 mM, pH 7 phosphate buffer): 23%
- Extinction coefficient at 347 nm ([2]; used to calculate relative quantum yields): 510 M⁻¹ cm⁻¹
Compound: CC(OP(=O)(O)O)c1ccccc1[N+](=O)[O-] (stereo not drawn) [1-(2-nitrophenylethyl) phosphate, 1-(2-Nitrophenylethyl) phosphate, reference compound]
- Product quantum yield, known value [1]: 0.54

Compound: N-carboxyglutamate
- Decarboxylation rate k [3]: ~150 s⁻¹

- Half-times for hydrolysis (amide hydrolysis) [4]: 29 h
- Water solubility [5]: highly water-soluble
Compound: COC(=O)Cc1cc2c(c([N+](=O)[O-])c1)N(C(=O)CCCCOP(=O)(O)O)CC2 [Compound 9]
- Effect of the caged compound before, during and after photolysis (glutamate ion channels): no effect
- Carboxylate formation, exponential rate of major component [6]: ~2700 s⁻¹
- Carboxylate formation, exponential rate of minor component [6]: ~10 s⁻¹
- Carboxylate formation, major component share of absorption increase [6]: ~80%

- Extent of conversion (photolysis) [7]: 40%
- Fold more efficient photolysis in organic solvent than in water [9]: at least 2 fold
Compound: COC(=O)Cc1cc2c(c([N+](=O)[O-])c1)N(C(=O)CCCC(=O)O)CC2 [Compound 8, Methyl 1-glutaryl-7-nitroindoline-5-acetate]
- Proton release, rate of smaller component ([8]; pH 7): ~9 s⁻¹
- Proton release, time course of major component ([8]; pH 7): complete within the laser pulse
- Proton release, major component share of signal ([8]; pH 7, Bromothymol Blue): ~85%
